Assay results published in patent US20220002279A1, “NOVEL IMIDAZOLE DERIVATIVE” (priority 2018, published 2022).
Values after ≈ are worked out from the molar mass of the structure shown.

What was measured:
[1] = target: T1, Pseudomonas aeruginosa LpxC enzyme (Pseudomonas aeruginosa, UniProt P47205); test: Inhibitory activity on Pseudomonas aeruginosa LpxC enzyme (fluorescamine method); format: biochemical; conditions: fluorescamine detection; 3.6 nmol/L enzyme, 20 μmol/L substrate, pH 8.0, 60 min
T1 construct: made in house; host or cells: Escherichia coli
T1 sequence (P47205 1-303): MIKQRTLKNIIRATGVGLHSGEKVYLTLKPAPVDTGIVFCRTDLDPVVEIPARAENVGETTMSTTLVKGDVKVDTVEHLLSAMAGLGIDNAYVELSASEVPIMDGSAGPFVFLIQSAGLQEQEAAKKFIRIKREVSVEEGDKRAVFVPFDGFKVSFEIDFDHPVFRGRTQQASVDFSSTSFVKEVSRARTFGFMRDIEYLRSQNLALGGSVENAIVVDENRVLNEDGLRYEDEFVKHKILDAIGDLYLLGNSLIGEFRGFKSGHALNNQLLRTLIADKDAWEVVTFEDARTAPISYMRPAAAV
Source text: Test Example 1 Evaluation of the Inhibitory Activity on Pseudomonas aeruginosa LpxC Enzyme (Fluoresamine Method)
To assay the activity of Pseudomonas aeruginosa LpxC enzyme, LpxC was reacted with its substrate, UDP-3-O-(R-3-hydroxydecanoyl)-N-acetylglucosamine, and the amount of the reaction product was quantified by the amino groups present in the product.
Specifically, to 3.6 nmol/L Pseudomonas aeruginosa LpxC enzyme (as acquired by preparing chromosomal DNA from Pseudomonas aeruginosa, obtaining the Pseudomonas aeruginosa LpxC genes by PCR (polymerase chain reaction) using LpxC specific primer, and incorporating the genes into a vector, followed by expression using Escherichia coli), 20 μmol/L UDP-3-O-(R-3-hydroxydecanoyl)-N-acetylglucosamine (Carbosynth) was added, and the mixture was incubated at room temperature for 60 minutes. This reaction was performed in a 40 mmol/L-HEPES buffer solution (pH 8.0) containing 0.02% Brij 35 and 25 nmol/L-zinc chloride. The reaction was terminated by the addition of 1.0 mg/mL-fluorescamine dissolved in a solvent obtained by mixing an equal amount of acetonitrile and dimethylformamide with the reaction mixture, and then, a 0.2 mol/L-sodium phosphate buffer solution (pH 8.0) was added thereto, and the amount of the reaction product was detected at an excitation wavelength/fluorescence wavelength=390 nm/495 nm. An inhibition curve was obtained by performing the aforementioned reaction in the presence of various concentrations of test compounds. From this inhibition curve, the concentration of test compound at which the amount of the reaction product was suppressed by 50% (IC50 value) was determined, which was used as an index for the inhibitory activity on Pseudomonas aeruginosa LpxC enzyme.

[2] = target: T2, Escherichia coli LpxC enzyme (Escherichia coli, UniProt P0A725); test: Inhibitory activity on Escherichia coli LpxC enzyme (LCMS method); format: biochemical; conditions: LC-MS/MS detection; 3.1 nmol/L enzyme, 20 μmol/L substrate, pH 6.5, 120 min; read-out: IC50 (inhibitory activity on Escherichia coli LpxC enzyme, LCMS method)
T2 construct: made in house; host or cells: Escherichia coli
T2 sequence (P0A725 1-305): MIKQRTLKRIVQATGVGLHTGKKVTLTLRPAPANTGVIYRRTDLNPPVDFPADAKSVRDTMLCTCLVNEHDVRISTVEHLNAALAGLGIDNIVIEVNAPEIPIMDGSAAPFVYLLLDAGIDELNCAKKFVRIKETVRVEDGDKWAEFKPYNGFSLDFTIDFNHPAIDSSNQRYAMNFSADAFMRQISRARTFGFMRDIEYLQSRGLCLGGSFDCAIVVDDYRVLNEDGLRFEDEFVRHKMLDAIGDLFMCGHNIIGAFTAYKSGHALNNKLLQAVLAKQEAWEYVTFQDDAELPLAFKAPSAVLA
Source text: Test Example 3 Evaluation of the Inhibitory Activity on Escherichia coli LpxC Enzyme (LCMS Method)
To assay the activity of Escherichia coli LpxC enzyme, LpxC was reacted with its substrate, UDP-3-O-(R-3-hydroxymyristoyl)-N-acetylglucosamine, and the amount of the reaction product was quantified by liquid chromatography tandem mass spectrometry.
Specifically, to 3.1 nmol/L Escherichia coli LpxC enzyme (as acquired by preparing chromosomal DNA from Escherichia coli, obtaining the Escherichia coli LpxC genes by PCR (polymerase chain reaction) using LpxC specific primer, and incorporating the genes into a vector, followed by expression using Escherichia coli), 20 μmol/L UDP-3-O-(R-3-hydroxymyristoyl)-N-acetylglucosamine (Alberta) was added, and the mixture was incubated at room temperature for 120 minutes. This reaction was performed in a 40 mmol/L-2-morpholinoethanesulfonic acid buffer solution (pH 6.5) containing 0.02% Brij 35, 25 nmol/L-zinc chloride, and 80 μmol/L-dithiothreitol. The reaction was terminated by the addition of acetonitrile containing 25 μmol/L-UDP-N-acetylglucosamine as an internal standard to the reaction mixture. Centrifugation was performed and the amount of the substrate and the reaction product in the supernatant was detected by liquid chromatography tandem mass spectrometry. An inhibition curve was obtained by performing the aforementioned reaction in the presence of various concentrations of test compounds. From this inhibition curve, the concentration of test compound at which the amount of the reaction product was suppressed by 50% (IC50 value) was determined, which was used as an index for the inhibitory activity on Escherichia coli LpxC enzyme.

[3] = system: Escherichia coli strain ATCC25922; test: Antimicrobial activity, MIC by broth microdilution; format: cell-based; conditions: ATCC25922, 18 h, cation-adjusted Mueller-Hinton broth, about 5×10^5 CFU/mL, 35° C., about 18 hours, read-out: MIC Escherichia coli ATCC25922
Outline: (§1)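 MIC read by eye as the lowest drug level lacking visible growth after roughly 18 h at 35° C. Cells from heart infusion agar, set to McFarland 0.5 and diluted, were inoculated at about 5×10^5 CFU/mL into cation-adjusted Mueller-Hinton broth with compound, per adapted CLSI microdilution.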

[4] = system: Klebsiella pneumoniae strain ATCC13883; test: Antimicrobial activity, MIC by broth microdilution; format: cell-based; conditions: ATCC13883, cation-adjusted Mueller-Hinton broth, about 5×10^5 CFU/mL, 35° C., about 18 hours, read-out: MIC Klebsiella pneumoniae ATCC13883
Outline: as §1

[5] = system: Pseudomonas aeruginosa strain ATCC27853; test: Antimicrobial activity, MIC by broth microdilution; format: cell-based; conditions: ATCC27853, 18 h, cation-adjusted Mueller-Hinton broth, about 5×10^5 CFU/mL, 35° C., about 18 hours, read-out: MIC Pseudomonas aeruginosa ATCC27853
Outline: as §1

## C[C@H](O)c1nccn1Cc1cc(-c2ccc(C#CC34CC(N)(C3)C4)cc2)on1 [Compound 17, (1S)-1-{1-[(5-(4-[(3-aminobicyclo[1.1.1]pentan-1-yl)ethynyl]phenyl}-1,2-oxazol-3-yl)methyl]-1H-imidazol-2-yl}ethan-1-ol]
[1]
  IC50: 13.8 nM
[2]
  IC50: 49.1 nM
[3]
  MIC: 0.5 µg/mL (≈ 1.34 µM)
[4]
  MIC: 0.5 µg/mL (≈ 1.34 µM)
[5]
  MIC: 16 µg/mL (≈ 42.7 µM)
